From BindingDB's records for doi:10.1021/jm010853h (Sapienza University of Rome, 2001)

Target: T1, Gag-Pol polyprotein [588-1027]/[588-1147] (Human immunodeficiency virus 1, UniProt P04585)
T1 construct: 588-1027; 588-1147
Experiment: HIV-1 RT Assay
Settings: pH 7.8; 37 °C

CCC(c1ccccc1)c1cc(=O)[nH]c(SC2CCCC2)n1 (stereo unspecified) [2-(cyclopentylsulfanyl)-6-(1-phenylpropyl)-3,4-dihydropyrimidin-4-one]
IC50: > 10 µM
